# Source: paper PMC8009421, “Characterization of a broadly specific cadaverine N-hydroxylase involved in desferrioxamine B biosynthesis in Streptomyces sviceus” (PLoS ONE, 2021)
# How the values were obtained:
# [1] = biological target: T1, SsDesB with N-terminal hexahistidine tag (Streptomyces sviceus, UniProt B5HNG5); assay: NADH oxidation at […] nm; assay type: biochemical; conditions: substrate inhibition constant (Haldane); 0.7 mM NADH, 50 μM FAD, 25°C
# T1 construct: gene SSEG_08523
# [2] = biological target: T2, SsDesB (without N-terminal hexahistidine tag) (Streptomyces sviceus, UniProt B5HNG5); assay: Csaky iodine oxidation product formation assay; assay type: biochemical; conditions: substrate inhibition constant (Haldane), 50 μM FAD, pH 8.0, 25°C
# T2 construct: gene SSEG_08523; T2-V425, N-terminal His6 cut off with TEV protease (ENLYFQ/T); codon-optimized gene, E. coli Rosetta2(DE3); homotetramer
# Excerpt: (§1) Csaky iodine oxidation product formation assay on SsDesB (without N-terminal hexahistidine tag)
# [3] = test system: NC(=O)C1=CN([C@@H]2O[C@H](COP(=O)(O)OP(=O)(O)OC[C@H]3O[C@@H](n4cnc5c(N)ncnc54)[C@H](O)[C@@H]3O)[C@@H](O)[C@H]2O)C=CC1; assay: purified protein; assay type: biochemical, Streptomyces sviceus; conditions: 10 mM cadaverine, 50 μM FAD, 25°C, Haldane fit
# [4] = biological target: T2, SsDesB (without N-terminal hexahistidine tag); assay: X-ray crystal structure, […] Å; conditions: holoenzyme; FAD-binding site; also in 6XBB
# [5] = biological target: T2, SsDesB (without N-terminal hexahistidine tag); assay: X-ray crystal structure, […] Å; conditions: ternary complex with FAD; NADPH-binding site
# [6] = test system: NC(=O)C1=CN([C@@H]2O[C@H](COP(=O)(O)OP(=O)(O)OC[C@H]3O[C@@H](n4cnc5c(N)ncnc54)[C@H](O)[C@@H]3O)[C@@H](O)[C@H]2O)C=CC1; assay: Csaky iodine oxidation product formation assay; assay type: biochemical, Streptomyces sviceus; conditions: 10 mM cadaverine, 50 μM FAD, pH 8.0, 25°C, Haldane fit
# Excerpt: as §1
molecule,measurement,setting,value
NCCCCCN [cadaverine],KI,[1],2200 ± 1800 µM
same,KI,[2]; 0.7 mM NADPH (Fig 3 legend says NADH),27000 ± 22000 µM
SsDesB with N-terminal hexahistidine tag (Streptomyces sviceus ATCC 29083),Km,[3],120 ± 36 µM
same,kcat,[3],0.38 ± 0.09 s⁻¹
same,kcat/Km,[3],3300 ± 1300 M⁻¹ s⁻¹
NC(=O)C1=CN([C@@H]2O[C@H](COP(=O)(O)OP(=O)(O)OC[C@H]3O[C@@H](n4cnc5c(N)ncnc54)[C@H](OP(=O)(O)O)[C@@H]3O)[C@@H](O)[C@H]2O)C=CC1 [NADPH],KI,[2]; 10 mM cadaverine,1100 ± 600 µM
Cc1cc2nc3c(=O)[nH]c(=O)nc-3n(C[C@H](O)[C@H](O)[C@H](O)COP(=O)(O)OP(=O)(O)OC[C@H]3O[C@@H](n4cnc5c(N)ncnc54)[C@H](O)[C@@H]3O)c2cc1C [FAD],"X-ray crystal structure, 2.86 Å",[4],FAD molecule is bound in an elongated conformation with the fully planar isoalloxazine ring
NC(=O)c1ccc[n+]([C@@H]2O[C@H](COP(=O)(O)OP(=O)(O)OC[C@H]3O[C@@H](n4cnc5c(N)ncnc54)[C@H](OP(=O)(O)O)[C@@H]3O)[C@@H](O)[C@H]2O)c1 [NADP^+],"X-ray crystal structure, 2.37 Å",[5],the NADP^+ cofactor is held in the active site pocket in an elongated manner
NC(=O)C1=CN([C@@H]2O[C@H](COP(=O)(O)OP(=O)(O)OC[C@H]3O[C@@H](n4cnc5c(N)ncnc54)[C@H](O)[C@@H]3O)[C@@H](O)[C@H]2O)C=CC1 [NADH],KI,[2]; 10 mM cadaverine,1000 ± 400 µM
SsDesB (without N-terminal hexahistidine tag) (Streptomyces sviceus ATCC 29083),Km,[6],130 ± 49 µM
same,kcat,[6],0.094 ± 0.018 s⁻¹
same,kcat/Km,[6],710 ± 260 M⁻¹ s⁻¹
